For the assay, the system named is platelets. Put plainly: Platelet aggregation and shape after cold storage (microscopy, Experiment A). Type of assay: cell-based, human. The settings on record: 2% final PEG-400, 5° C., 26 days, rotation 70 cycles per minute. The procedure: Photomicrographs were taken with a Nikon E400 microscope with an Insight 18.2 Color Camera and Spot 5.1 image capture software. No image adjustments were performed. Fluorescent microscopy was performed using a Leica DMIL photomicroscope and Leica LAS V3.8 image acquisition software. No post photographic image adjustments were made.
Platelets are known to change shape and show partial aggregation when chilled. The goal of the initial experiments was to see if this behavior changed when platelets were incubated in the presence of PEG-400. Two standard random donor platelet concentrates, type O, were mixed by connecting the bags, followed by gravity mixing 8 times. This mixture was equally divided by weight into the two original platelet bags and either 10 ml of PBS or 10 ml of PEG-400 in PBS was added to the control and test unit respectively. The final concentration of PEG-400 in the unit was 2%. These units were then gently rotated at 70 cycles per minute, with a 1 inch stroke length, at 5° C., over 26 days. At the end of this time aliquots were examined and photographed. • PBS Control 2% PEG-400 in PBS

Consider Polyethylene glycol [PEG-400], for which the “platelet aggregation and rod shapes vs PBS control” value was “control was observed to be more aggregated and to have more rod shapes than the PEG test platelets”.

(Values after patent publication US10897891B2, “Compositions and methods for prolonged cell storage” (Board of Regents, The University of Texas System, priority 2015, dated 2021).)
